Values of other authors, collected in patent publication US20100249179A1, “Farnesoid X Receptor Agonists” (SMITHKLINE BEECHAM CORPORATION, priority 2007, published 2010).
“Also recorded” adds a separate entry of the source.

How the values were obtained:
diabetic db/db mice = conditions: cited from earlier work
[1] = system: C57BL mice on high-fat diet; conditions: cited from earlier work
male ob/ob mice = conditions: GW4064 30 mg/kg intraperitoneally; cited from earlier work
bile duct-ligated mouse = bile duct-ligated mouse model; cited from earlier work
[2] = system: mice on a lithogenic diet; conditions: cited from earlier work
[3] = oral GW4064 30 mg/kg bid, db/db mice
[4] = GW4064 100 mg/kg twice a day orally, high-fat diet mice, 100 mg/kg
[5] = GW4064 100 mg/kg twice a day orally, high-fat diet mice

For `CC(C)c1onc(-c2c(Cl)cccc2Cl)c1COc1ccc(/C=C/c2cccc(C(=O)O)c2)c(Cl)c1` [GW4064], the “glycogen storage in the liver” value (diabetic db/db mice; db/db mice) is listed as “enhanced”, the “insulin signalling in the liver” value (diabetic db/db mice; db/db mice) is listed as “enhanced” and the hyperglycemia (diabetic db/db mice; diabetic db/db mice) is listed as “significantly improved”. For the same compound, the hyperlipidemia (diabetic db/db mice; diabetic db/db mice) was “significantly improved”, the NEFA (diabetic db/db mice; [3]) was “decreased” and the blood glucose (diabetic db/db mice; [3]) was “decreased”. The “serum β-hydroxybutyrate” value (diabetic db/db mice; [3]) was “decreased”, the total cholesterol (diabetic db/db mice; [3]) was “decreased” and the triglyceride (diabetic db/db mice; [3]) was “decreased”. For the same compound, the glucose tolerance ([1]; GW4064 100 mg/kg twice a day orally, high-fat diet mice, GTT, 100 mg/kg) was “corrected glucose intolerance; also recorded: improve”, the serum glucose [1, 4] was “decreased” and the serum insulin [1, 4] was “decreased”. The serum triglyceride [1, 4] was “decreased”, the “high-fat diet induced body weight gain” value [1, 5] was “reduced” and the liver triglyceride content [1, 5] was “reduced”. The body fat mass ([1]; mice on high-fat diet) was “decrease”, the body weight ([1]; mice on high-fat diet) was “decrease” and the total cholesterol ([1]; mice on high-fat diet) was “decrease”. For the same compound, the body weight (male ob/ob mice) was “did not alter”, the fasting blood glucose (male ob/ob mice) was “no effect” and the food intake (male ob/ob mice) was “did not alter”. The glucose tolerance (male ob/ob mice) was “improved”, the insulin concentration (male ob/ob mice) was “decreased” and the insulin sensitivity (male ob/ob mice) was “enhanced”. The bacterial overgrowth (bile duct-ligated mouse) was “decreased”, the mucosal barrier (bile duct-ligated mouse) was “improved” and the “translocation of bacteria to mesenteric lymph nodes” value (bile duct-ligated mouse) was “decreased”. The “formation of cholesterol crystals in the bile” value [2] was “prevented”.
